# Values quoted from earlier work in patent US6080725A, “Immunostimulating and vaccine compositions employing saponin analog adjuvants and uses thereof” (priority 1999, dated 2000).
# Like-named read-outs stand apart in the source and are kept apart here.
# Test system: lymphoproliferative test
smiles,measurement,setting,value
CC(=O)O[C@@H]1[C@H](O[C@@H]2O[C@@H](CO)[C@H](O)[C@H]2O)[C@@H](O[C@@H]2O[C@@H](C)[C@H](O[C@@H]3OC[C@@H](O)[C@H](O)[C@H]3O)[C@@H](O)[C@H]2O)[C@H](OC(=O)[C@]23CCC(C)(C)C[C@H]2C2=CC[C@@H]4[C@@]5(C)CC[C@H](O[C@@H]6O[C@H](C(=O)O)[C@@H](O)[C@H](O[C@@H]7OC[C@@H](O)[C@H](O)[C@H]7O)[C@H]6O[C@@H]6O[C@H](CO)[C@H](O)[C@H](O)[C@H]6O)[C@@](C)(C=O)[C@H]5CC[C@@]4(C)[C@]2(C)CC3)O[C@@H]1C [squarroside A],"immunomodulating effect, lymphoproliferative test",concentrations in the pg range,stimulant effect
same,"immunomodulating effect, lymphoproliferative test",concentrations in the μg range,suppressive effect
same,"immunomodulating activity, lymphoproliferative test",dose-dependent,immunomodulating activity
